Source: a compilation of properties of binary mixtures (doi:10.1016/j.molliq.2020.114573)

Experiment: xn = mol fraction of the nth substance listed
Conditions: 101.3 kPa

CC[n+]1ccn(C)c1.O=S(=O)([N-]S(=O)(=O)C(F)(F)F)C(F)(F)F + CC1COC(=O)O1
Conditions | viscosity [mPa·s]
288.15 K, x1 = 0.1 | 4.724
288.15 K, x1 = 0.2127 | 7.25
288.15 K, x1 = 0.3007 | 9.74
288.15 K, x1 = 0.4227 | 14.35
288.15 K, x1 = 0.5146 | 18.39
288.15 K, x1 = 0.6015 | 23.02
288.15 K, x1 = 0.658 | 25.85
288.15 K, x1 = 0.7004 | 28.44
288.15 K, x1 = 0.7601 | 31.76
288.15 K, x1 = 0.8098 | 35.48
288.15 K, x1 = 0.8657 | 38.62
288.15 K, x1 = 0.8868 | 40.67
288.15 K, x1 = 0.9533 | 44.93
288.15 K, x1 = 1 | 47.8
293.15 K, x1 = 0.1 | 4.184
293.15 K, x1 = 0.2127 | 6.34
293.15 K, x1 = 0.4227 | 11.98
293.15 K, x1 = 0.5146 | 15.03
293.15 K, x1 = 0.6015 | 19.33
293.15 K, x1 = 0.658 | 21.63
293.15 K, x1 = 0.7004 | 23.75
293.15 K, x1 = 0.7601 | 26.4
293.15 K, x1 = 0.7977 | 28.37
293.15 K, x1 = 0.8098 | 29.37
293.15 K, x1 = 0.8657 | 31.88
293.15 K, x1 = 0.8868 | 33.56
293.15 K, x1 = 0.9533 | 36.88
298.15 K, x1 = 0.1 | 3.737
298.15 K, x1 = 0.3007 | 7.34
298.15 K, x1 = 0.4227 | 10.32
298.15 K, x1 = 0.5146 | 12.87
298.15 K, x1 = 0.6015 | 16.3
298.15 K, x1 = 0.658 | 18.51
298.15 K, x1 = 0.7601 | 22.25
298.15 K, x1 = 0.7977 | 23.88
298.15 K, x1 = 0.8098 | 24.66
298.15 K, x1 = 0.8657 | 26.69
298.15 K, x1 = 0.8868 | 28.06
298.15 K, x1 = 0.9533 | 30.76
298.15 K, x1 = 1 | 32.42
303.15 K, x1 = 0.2127 | 4.96
303.15 K, x1 = 0.3007 | 6.46
303.15 K, x1 = 0.5146 | 11.13
303.15 K, x1 = 0.6015 | 14.61
303.15 K, x1 = 0.658 | 16.21
303.15 K, x1 = 0.7004 | 17.58
303.15 K, x1 = 0.7977 | 20.34
303.15 K, x1 = 0.8098 | 20.96
303.15 K, x1 = 0.8657 | 22.62
303.15 K, x1 = 0.8868 | 23.76
303.15 K, x1 = 0.9533 | 25.94
303.15 K, x1 = 1 | 27.26
308.15 K, x1 = 0.1 | 3.037
308.15 K, x1 = 0.2127 | 4.435
308.15 K, x1 = 0.3007 | 5.73
308.15 K, x1 = 0.5146 | 9.72
308.15 K, x1 = 0.658 | 14.09
308.15 K, x1 = 0.7004 | 15.35
308.15 K, x1 = 0.7977 | 17.84
308.15 K, x1 = 0.8098 | 18.26
308.15 K, x1 = 0.8657 | 19.38
308.15 K, x1 = 0.8868 | 20.35
308.15 K, x1 = 0.9533 | 22.14
313.15 K, x1 = 0.1 | 2.762
313.15 K, x1 = 0.2127 | 3.99
313.15 K, x1 = 0.3007 | 5.13
313.15 K, x1 = 0.4227 | 6.99
313.15 K, x1 = 0.5146 | 8.55
313.15 K, x1 = 0.6015 | 10.89
313.15 K, x1 = 0.658 | 12.21
313.15 K, x1 = 0.7004 | 13.32
313.15 K, x1 = 0.7977 | 15.7
313.15 K, x1 = 0.8657 | 17.2
313.15 K, x1 = 0.8868 | 17.89
313.15 K, x1 = 0.9533 | 19.08
318.15 K, x1 = 0.1 | 2.524
318.15 K, x1 = 0.2127 | 3.613
318.15 K, x1 = 0.4227 | 6.24
318.15 K, x1 = 0.5146 | 7.6
318.15 K, x1 = 0.658 | 10.64
318.15 K, x1 = 0.7601 | 12.82
318.15 K, x1 = 0.7977 | 13.74
318.15 K, x1 = 0.8098 | 14.09
318.15 K, x1 = 0.8657 | 15.18
318.15 K, x1 = 0.8868 | 15.85
318.15 K, x1 = 1 | 17.37
323.15 K, x1 = 0.1 | 2.318
323.15 K, x1 = 0.2127 | 3.292
323.15 K, x1 = 0.3007 | 4.173
323.15 K, x1 = 0.4227 | 5.6
323.15 K, x1 = 0.5146 | 6.79
323.15 K, x1 = 0.658 | 9.31
323.15 K, x1 = 0.7004 | 10.12
323.15 K, x1 = 0.7601 | 11.2
323.15 K, x1 = 0.7977 | 11.96
323.15 K, x1 = 0.8098 | 12.34
323.15 K, x1 = 0.8657 | 13.32
323.15 K, x1 = 0.8868 | 13.92
323.15 K, x1 = 0.9533 | 15.09
323.15 K, x1 = 1 | 15.34
328.15 K, x1 = 0.1 | 2.138
328.15 K, x1 = 0.3007 | 3.8
328.15 K, x1 = 0.6015 | 7.37
328.15 K, x1 = 0.658 | 8.23
328.15 K, x1 = 0.7004 | 8.93
328.15 K, x1 = 0.8098 | 10.81
328.15 K, x1 = 0.8657 | 11.71
328.15 K, x1 = 0.8868 | 12.21
328.15 K, x1 = 0.9533 | 13.31
328.15 K, x1 = 1 | 13.63
333.15 K, x1 = 0.2127 | 2.771
333.15 K, x1 = 0.4227 | 4.607
333.15 K, x1 = 0.5146 | 5.53
333.15 K, x1 = 0.6015 | 6.52
333.15 K, x1 = 0.7601 | 8.7
333.15 K, x1 = 0.7977 | 9.28
333.15 K, x1 = 0.8098 | 9.55
333.15 K, x1 = 0.8657 | 10.33
333.15 K, x1 = 0.8868 | 10.75
333.15 K, x1 = 0.9533 | 11.76
333.15 K, x1 = 1 | 12.17
338.15 K, x1 = 0.2127 | 2.558
338.15 K, x1 = 0.3007 | 3.195
338.15 K, x1 = 0.4227 | 4.205
338.15 K, x1 = 0.5146 | 5.03
338.15 K, x1 = 0.6015 | 5.88
338.15 K, x1 = 0.658 | 6.52
338.15 K, x1 = 0.7004 | 7.07
338.15 K, x1 = 0.7601 | 7.75
338.15 K, x1 = 0.7977 | 8.26
338.15 K, x1 = 0.8098 | 8.49
338.15 K, x1 = 0.8657 | 9.18
338.15 K, x1 = 0.8868 | 9.55
338.15 K, x1 = 0.9533 | 10.42
338.15 K, x1 = 1 | 10.88
343.15 K, x1 = 0.1 | 1.712
343.15 K, x1 = 0.2127 | 2.37
343.15 K, x1 = 0.3007 | 2.947
343.15 K, x1 = 0.4227 | 3.852
343.15 K, x1 = 0.6015 | 5.33
343.15 K, x1 = 0.658 | 5.88
343.15 K, x1 = 0.7004 | 6.33
343.15 K, x1 = 0.8657 | 8.2
343.15 K, x1 = 0.8868 | 8.52
343.15 K, x1 = 0.9533 | 9.3
343.15 K, x1 = 1 | 9.76
348.15 K, x1 = 0.3007 | 2.729
348.15 K, x1 = 0.4227 | 3.549
348.15 K, x1 = 0.5146 | 4.215
348.15 K, x1 = 0.6015 | 4.9
348.15 K, x1 = 0.7004 | 5.77
348.15 K, x1 = 0.7601 | 6.34
348.15 K, x1 = 0.7977 | 6.71
348.15 K, x1 = 0.8098 | 6.83
348.15 K, x1 = 0.8657 | 7.35
348.15 K, x1 = 0.8868 | 7.64
348.15 K, x1 = 0.9533 | 8.33
348.15 K, x1 = 1 | 8.78
